Read-outs that look alike come from different tables or passages of the source.
What was measured:
human NPR1 = target: T1, human NPR1 (Homo sapiens, UniProt P16066); test: Cellular cGMP production assay, human NPR1 expressing CHO-K1 cells (CisBio HTRF); format: cell-based; details: for AC50: cGMP production, 30 min at 37° C., 12-point dose-response from 30 μM; for Human NPR1 Amax (% of ANP): maximum cGMP production as percentage of the maximum cGMP produced with ANP
T1 construct: host or cells: CHO-K1
T1 sequence (P16066 33-1061): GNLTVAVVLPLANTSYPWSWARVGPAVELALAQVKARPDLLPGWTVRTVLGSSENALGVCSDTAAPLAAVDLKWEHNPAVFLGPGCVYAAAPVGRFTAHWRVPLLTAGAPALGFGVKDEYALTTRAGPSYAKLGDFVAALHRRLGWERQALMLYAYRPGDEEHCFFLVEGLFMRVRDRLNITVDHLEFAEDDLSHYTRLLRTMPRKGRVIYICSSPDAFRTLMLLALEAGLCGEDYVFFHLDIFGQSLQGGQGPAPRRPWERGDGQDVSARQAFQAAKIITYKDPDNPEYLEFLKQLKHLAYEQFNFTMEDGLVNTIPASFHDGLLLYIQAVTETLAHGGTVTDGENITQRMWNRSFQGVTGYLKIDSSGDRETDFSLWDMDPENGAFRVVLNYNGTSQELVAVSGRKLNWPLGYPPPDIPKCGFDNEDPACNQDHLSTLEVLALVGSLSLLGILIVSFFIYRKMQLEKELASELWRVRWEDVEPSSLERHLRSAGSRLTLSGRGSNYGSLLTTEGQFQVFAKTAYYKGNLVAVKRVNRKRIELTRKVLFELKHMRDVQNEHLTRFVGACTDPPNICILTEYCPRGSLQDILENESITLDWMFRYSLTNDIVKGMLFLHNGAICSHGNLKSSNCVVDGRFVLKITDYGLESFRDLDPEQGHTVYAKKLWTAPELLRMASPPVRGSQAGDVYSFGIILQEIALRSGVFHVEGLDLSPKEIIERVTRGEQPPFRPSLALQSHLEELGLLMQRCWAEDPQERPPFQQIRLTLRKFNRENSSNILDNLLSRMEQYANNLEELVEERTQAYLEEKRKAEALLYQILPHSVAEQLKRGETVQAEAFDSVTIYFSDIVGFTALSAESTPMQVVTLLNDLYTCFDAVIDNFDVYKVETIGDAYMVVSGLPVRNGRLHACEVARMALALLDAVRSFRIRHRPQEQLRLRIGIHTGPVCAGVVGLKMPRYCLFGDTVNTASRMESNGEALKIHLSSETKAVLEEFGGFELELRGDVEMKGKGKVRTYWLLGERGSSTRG
Method in brief: (§1)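 Read-out was HTRF (excitation 317 nm, emission 665 nm), with cGMP quantified as Delta F against a calibrator standard curve. Beforehand, cells were exposed for 30 min at 37 °C to compound (30 μM top, twelve 3-fold steps) in IBMX-containing PBS/BSA buffer, then lysed.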

monkey NPR1 = monkey NPR1 (Macaca fascicularis, UniProt A0A7N9DBT9); test: Cellular cGMP production assay, monkey NPR1 expressing CHO-K1 cells (CisBio HTRF); format: cell-based; details: for Monkey NPR1 Amax (% of ANP): maximum cGMP production as percentage of the maximum cGMP produced with ANP
monkey NPR1, sequence (A0A7N9DBT9 entry or part of it): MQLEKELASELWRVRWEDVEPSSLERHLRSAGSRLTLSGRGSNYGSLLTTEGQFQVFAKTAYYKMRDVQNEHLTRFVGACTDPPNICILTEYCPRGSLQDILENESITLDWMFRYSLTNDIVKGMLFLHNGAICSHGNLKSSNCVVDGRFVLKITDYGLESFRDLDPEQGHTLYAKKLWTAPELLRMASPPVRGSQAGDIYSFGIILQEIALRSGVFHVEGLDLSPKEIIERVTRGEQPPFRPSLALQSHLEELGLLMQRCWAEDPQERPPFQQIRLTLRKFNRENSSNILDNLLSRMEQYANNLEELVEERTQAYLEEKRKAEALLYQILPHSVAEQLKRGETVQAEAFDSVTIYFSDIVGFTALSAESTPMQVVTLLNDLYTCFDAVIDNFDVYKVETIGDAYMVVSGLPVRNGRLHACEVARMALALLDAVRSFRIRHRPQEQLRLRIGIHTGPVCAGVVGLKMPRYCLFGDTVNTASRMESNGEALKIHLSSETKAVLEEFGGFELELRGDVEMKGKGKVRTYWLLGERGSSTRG
Method in brief: as §1

[1] = cGMP production, monkey NPR1 CHO-K1 cells, 30 min at 37° C., 12-point dose-response from 30 μM, read-out: Monkey NPR1 AC50

In the case of CC[C@@H](Nc1nc2c(c(N[C@@H](CN3CCCC3)c3ccccc3)n1)CN(c1ccccc1)CC2)[C@H]1CC[C@H](C(=O)O)CC1 [Compound 131, (1R,4r)-4-((R)-1-((6-phenyl-4-(((R)-1-phenyl-2-(pyrrolidin-1-yl)ethyl)amino)-5,6,7,8-tetrahydropyrido[4,3-d]pyrimidin-2-yl)amino)propyl)cyclohexane-1-carboxylic acid], the AC50 (human NPR1) is reported as 693 nM, the “Human NPR1 Amax (% of ANP)” value (human NPR1) is reported as 101.666 % of ANP and the AC50 (monkey NPR1; [1]) is reported as 582 nM. The “Monkey NPR1 Amax (% of ANP)” value (monkey NPR1; monkey NPR1 CHO-K1 cells) was 109.531 % of ANP.
With CC[C@@H](Nc1nc2c(c(N[C@@H](CN3C4CCCC3CCC4)c3cnn(C(C)C)c3)n1)C[C@H](c1ccccc1)CC2)[C@H]1CC[C@H](C(=O)O)CC1 [Compound 132, (1R,4r)-4-((R)-1-(((R)-4-(((R)-2-((1S,5S)-9-azabicyclo[3.3.1]nonan-9-yl)-1-(1-isopropyl-1H-pyrazol-4-yl)ethyl)amino)-6-phenyl-5,6,7,8-tetrahydroquinazolin-2-yl)amino)propyl)cyclohexane-1-carboxylic acid] the AC50 (human NPR1) was 757 nM, the “Human NPR1 Amax (% of ANP)” value (human NPR1) was 97.440 % of ANP and the AC50 (monkey NPR1) was 620 nM. The “Monkey NPR1 Amax (% of ANP)” value (monkey NPR1; monkey NPR1 CHO-K1 cells) was 103.231 % of ANP.
With CN(c1nc2c(c(N[C@@H](CN3C4CCCC3CCC4)c3cnn(C)c3)n1)C[C@H](c1ccccc1)CC2)[C@H](C1CC1)[C@H]1CC[C@H](C(=O)O)CC1 [Compound 133, (1R,4r)-4-((R)-(((R)-4-(((R)-2-((1S,5S)-9-azabicyclo[3.3.1]nonan-9-yl)-1-(1-methyl-1H-pyrazol-4-yl)ethyl)amino)-6-phenyl-5,6,7,8-tetrahydroquinazolin-2-yl)(methyl)amino)(cyclopropyl)methyl)cyclohexane-1-carboxylic acid] the AC50 (human NPR1) was 765 nM, the “Human NPR1 Amax (% of ANP)” value (human NPR1) was 95.978 % of ANP and the AC50 (monkey NPR1) was 647 nM. The “Monkey NPR1 Amax (% of ANP)” value (monkey NPR1; monkey NPR1 CHO-K1 cells) was 99.809 % of ANP.
For CC[C@H]([C@H]1CC[C@H](C(=O)O)CC1)N(C)c1nc2c(c(N[C@@H](CN3CCC[C@H](OC)C3)c3cnn(C)c3)n1)C[C@H](c1ccccc1)CC2 [Compound 134, (1R,4r)-4-((R)-1-(((R)-4-(((R)-2-((S)-3-methoxypiperidin-1-yl)-1-(1-methyl-1H-pyrazol-4-yl)ethyl)amino)-6-phenyl-5,6,7,8-tetrahydroquinazolin-2-yl)(methyl)amino)propyl)cyclohexane-1-carboxylic acid], the AC50 (human NPR1) was 792 nM, the “Human NPR1 Amax (% of ANP)” value (human NPR1) was 101.936 % of ANP and the AC50 (monkey NPR1; [1]) was 684 nM. The “Monkey NPR1 Amax (% of ANP)” value (monkey NPR1; monkey NPR1 CHO-K1 cells) was 96.371 % of ANP.
In the case of CC[C@H]([C@H]1CC[C@H](C(=O)O)CC1)N(C)c1nc2c(c(N[C@@H](CN3CCCC[C@H]3CO)c3cnn(CC)c3)n1)C[C@H](c1cccc(F)c1)CC2 [Compound 135, (1R,4r)-4-((R)-1-(((R)-4-(((R)-1-(1-ethyl-1H-pyrazol-4-yl)-2-((S)-2-(hydroxymethyl)piperidin-1-yl)ethyl)amino)-6-(3-fluorophenyl)-5,6,7,8-tetrahydroquinazolin-2-yl)(methyl)amino)propyl)cyclohexane-1-carboxylic acid], the AC50 (human NPR1) is reported as 805 nM, the “Human NPR1 Amax (% of ANP)” value (human NPR1) is reported as 94.757 % of ANP and the AC50 (monkey NPR1; [1]) is reported as 604 nM. For the same molecule, the “Monkey NPR1 Amax (% of ANP)” value (monkey NPR1; monkey NPR1 CHO-K1 cells) was 99.242 % of ANP.
With CC[C@H]([C@H]1CC[C@H](C(=O)O)CC1)N(C)c1nc2c(c(N[C@@H](CN3CC4CCC3C4)c3ccccc3)n1)C[C@H](c1ccccc1)CC2 (stereo partly drawn) [Compound 136, (1R,4r)-4-((1R)-1-(((6R)-4-(((1R)-2-(2-azabicyclo[2.2.1]heptan-2-yl)-1-phenylethyl)amino)-6-phenyl-5,6,7,8-tetrahydroquinazolin-2-yl)(methyl)amino)propyl)cyclohexane-1-carboxylic acid] the AC50 (human NPR1) was 812 nM, the “Human NPR1 Amax (% of ANP)” value (human NPR1) was 103.913 % of ANP and the AC50 (monkey NPR1; [1]) was 516 nM. For the same molecule, the “Monkey NPR1 Amax (% of ANP)” value (monkey NPR1; monkey NPR1 CHO-K1 cells) was 96.754 % of ANP.
CC[C@@H](Nc1nc2c(c(N[C@@H](CN3CCCC(F)(F)CC3)c3cnn(CC)c3)n1)C[C@H](c1ccccc1)CC2)[C@H]1CC[C@H](C(=O)O)CC1 [Compound 137, (1R,4r)-4-((R)-1-(((R)-4-(((R)-2-(4,4-difluoroazepan-1-yl)-1-(1-ethyl-1H-pyrazol-4-yl)ethyl)amino)-6-phenyl-5,6,7,8-tetrahydroquinazolin-2-yl)amino)propyl)cyclohexane-1-carboxylic acid] was tested, and the AC50 (human NPR1) was 840 nM, the “Human NPR1 Amax (% of ANP)” value (human NPR1) was 95.603 % of ANP and the AC50 (monkey NPR1; [1]) was 379 nM. For the same molecule, the “Monkey NPR1 Amax (% of ANP)” value (monkey NPR1; monkey NPR1 CHO-K1 cells) was 99.351 % of ANP.
With CC[C@H]([C@H]1CC[C@H](C(=O)O)CC1)N(C)c1nc2c(c(N[C@@H](CN3C[C@H]4C[C@@H](C3)C4O)c3cnn(C)c3)n1)C[C@H](c1ccccc1)CC2 (stereo partly drawn) [Compound 138, (1R,4r)-4-((1R)-1-(((6R)-4-(((1R)-2-((1R,5S)-6-hydroxy-3-azabicyclo[3.1.1]heptan-3-yl)-1-(1-methyl-1H-pyrazol-4-yl)ethyl)amino)-6-phenyl-5,6,7,8-tetrahydroquinazolin-2-yl)(methyl)amino)propyl)cyclohexane-1-carboxylic acid] the AC50 (human NPR1) was 852 nM, the “Human NPR1 Amax (% of ANP)” value (human NPR1) was 105.993 % of ANP and the AC50 (monkey NPR1) was 734 nM. The “Monkey NPR1 Amax (% of ANP)” value (monkey NPR1; monkey NPR1 CHO-K1 cells) was 101.929 % of ANP.
In the case of O=C(O)[C@H]1CC[C@H](C(CC2CC2)Nc2nc3c(c(N[C@@H](CN4CCCC4)c4ccccc4)n2)CC(c2ccccc2)CC3)CC1 (stereo partly drawn) [Compound 139, (1R,4r)-4-((1R)-2-cyclopropyl-1-((6-phenyl-4-(((R)-1-phenyl-2-(pyrrolidin-1-yl)ethyl)amino)-5,6,7,8-tetrahydroquinazolin-2-yl)amino)ethyl)cyclohexane-1-carboxylic acid], the AC50 (human NPR1) is reported as 876 nM, the “Human NPR1 Amax (% of ANP)” value (human NPR1) is reported as 105.089 % of ANP and the AC50 (monkey NPR1; [1]) is reported as 696 nM. The “Monkey NPR1 Amax (% of ANP)” value (monkey NPR1; monkey NPR1 CHO-K1 cells) was 111.911 % of ANP.
CC[C@@H](N(C)c1nc2c(c(N[C@@H](CN3CCC[C@H](C)C3)c3cc(C)nn3C)n1)C[C@H](c1ccccc1)CC2)C12CC(C(=O)O)(C1)C2 [Compound 140, 3-(1-(((R)-4-(((S)-1-(1,3-dimethyl-1H-pyrazol-5-yl)-2-((S)-3-methylpiperidin-1-yl)ethyl)amino)-6-phenyl-5,6,7,8-tetrahydroquinazolin-2-yl)(methyl)amino)-1l3-propyl)bicyclo[1.1.1]pentane-1-carboxylic acid] was tested, and the AC50 (human NPR1) was 885 nM, the “Human NPR1 Amax (% of ANP)” value (human NPR1) was 89.152 % of ANP and the AC50 (monkey NPR1; [1]) was 499 nM. For the same molecule, the “Monkey NPR1 Amax (% of ANP)” value (monkey NPR1; monkey NPR1 CHO-K1 cells) was 96.883 % of ANP.
For CC[C@H]([C@H]1CC[C@H](C(=O)O)CC1)N(C)c1nc2c(c(N[C@@H](CN3CCC[C@H](C)C3)c3cnn(C)c3)n1)C[C@@H](c1ccccc1F)CC2 [Compound 141, (1R,4r)-4-((R)-1-(((S)-6-(2-fluorophenyl)-4-(((R)-1-(1-methyl-1H-pyrazol-4-yl)-2-((S)-3-methylpiperidin-1-yl)ethyl)amino)-5,6,7,8-tetrahydroquinazolin-2-yl)(methyl)amino)propyl)cyclohexane-1-carboxylic acid], the AC50 (human NPR1) was 888 nM, the “Human NPR1 Amax (% of ANP)” value (human NPR1) was 102.728 % of ANP and the AC50 (monkey NPR1; [1]) was 731 nM. The “Monkey NPR1 Amax (% of ANP)” value (monkey NPR1; monkey NPR1 CHO-K1 cells) was 105.798 % of ANP.
In the case of CC[C@@H](Nc1nc2c(c(N[C@@H](CN3CCC(F)CC3)c3cnn(C)c3)n1)C[C@H](c1ccccc1)CC2)[C@H]1CC[C@H](C(=O)O)CC1 [Compound 142, (1R,4r)-4-((R)-1-(((R)-4-(((R)-2-(4-fluoropiperidin-1-yl)-1-(1-methyl-1H-pyrazol-4-yl)ethyl)amino)-6-phenyl-5,6,7,8-tetrahydroquinazolin-2-yl)amino)propyl)cyclohexane-1-carboxylic acid], the AC50 (human NPR1) is reported as 901 nM, the “Human NPR1 Amax (% of ANP)” value (human NPR1) is reported as 107.815 % of ANP and the AC50 (monkey NPR1; [1]) is reported as 313 nM. For the same molecule, the “Monkey NPR1 Amax (% of ANP)” value (monkey NPR1; monkey NPR1 CHO-K1 cells) was 95.614 % of ANP.
With CC[C@H]([C@H]1CC[C@H](C(=O)O)CC1)N(C)c1nc2c(c(N[C@@H](CN3C4CCCC3CCC4)c3cnn(C)c3)n1)C[C@H](c1ccccc1)CC2 [Compound 143, (1R,4r)-4-((R)-1-(((R)-4-(((R)-2-((1S,5S)-9-azabicyclo[3.3.1]nonan-9-yl)-1-(1-methyl-1H-pyrazol-4-yl)ethyl)amino)-6-phenyl-5,6,7,8-tetrahydroquinazolin-2-yl)(methyl)amino)propyl)cyclohexane-1-carboxylic acid] the AC50 (human NPR1) was 920 nM, the “Human NPR1 Amax (% of ANP)” value (human NPR1) was 104.085 % of ANP and the AC50 (monkey NPR1) was 694 nM. The “Monkey NPR1 Amax (% of ANP)” value (monkey NPR1; monkey NPR1 CHO-K1 cells) was 100.784 % of ANP.
